Measurements reported in ChEMBL document CHEMBL1201861, “Genomics of Drug Sensitity in Cancer screening data, Wellcome Trust Sanger Institute”.

test system: MDA-MB-175-VII; test: cells; type: functional, cell-based, Homo sapiens; conditions: Homo sapiens, MDA-MB-175-VII

SMILES	IC50 [nM]
CCN(CC)CCCCNc1ncc2cc(-c3cc(OC)cc(OC)c3)c(NC(=O)NC(C)(C)C)nc2n1 [PD-173074]	> 2000
CC(C)CCN1c2nc(Nc3cc(F)c(O)c(F)c3)ncc2N(C)C(=O)C1C (stereo unspecified)	> 5000

test system: YAPC; test: cells; type: functional, cell-based, Homo sapiens; conditions: Homo sapiens, YAPC;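 further: growth inhibition of YAPC cells, measured with a cell viability assay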
Description: SANGER: Inhibition of human YAPC cell growth in a cell viability assay.

SMILES	IC50 [nM]
CCN(CC)CCCCNc1ncc2cc(-c3cc(OC)cc(OC)c3)c(NC(=O)NC(C)(C)C)nc2n1 [PD-173074]	> 2000
CC(C)CCN1c2nc(Nc3cc(F)c(O)c(F)c3)ncc2N(C)C(=O)C1C (stereo unspecified)	> 5000

test system: GCT; test: cells; type: functional, cell-based, Homo sapiens; conditions: Homo sapiens, GCT;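 further: GCT cell line proliferation inhibition, read out with a cell viability assay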
Description: SANGER: Inhibition of human GCT cell growth in a cell viability assay.

SMILES	IC50 [nM]
CCN(CC)CCCCNc1ncc2cc(-c3cc(OC)cc(OC)c3)c(NC(=O)NC(C)(C)C)nc2n1 [PD-173074]	> 2000
CC(C)CCN1c2nc(Nc3cc(F)c(O)c(F)c3)ncc2N(C)C(=O)C1C (stereo unspecified)	2310

test system: SK-MEL3; test: cells; type: functional, cell-based, Homo sapiens, SK-MEL-3; conditions: Homo sapiens, SK-MEL3;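 further: growth inhibition of human SK-MEL-3 cells, read out with a cell viability assay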
Description: SANGER: Inhibition of human SK-MEL-3 cell growth in a cell viability assay.

SMILES	IC50 [nM]
CCN(CC)CCCCNc1ncc2cc(-c3cc(OC)cc(OC)c3)c(NC(=O)NC(C)(C)C)nc2n1 [PD-173074]	> 2000
CC(C)CCN1c2nc(Nc3cc(F)c(O)c(F)c3)ncc2N(C)C(=O)C1C (stereo unspecified)	> 5000

test system: MKN-28; test: cells; type: functional, cell-based, Homo sapiens; conditions: Homo sapiens, MKN-28;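 further: cell viability assay read-out, IC50 reflects suppression of growth of human MKN-28 cells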
Description: SANGER: Inhibition of human MKN28 cell growth in a cell viability assay.

SMILES	IC50 [nM]
CCN(CC)CCCCNc1ncc2cc(-c3cc(OC)cc(OC)c3)c(NC(=O)NC(C)(C)C)nc2n1 [PD-173074]	> 2000
CC(C)CCN1c2nc(Nc3cc(F)c(O)c(F)c3)ncc2N(C)C(=O)C1C (stereo unspecified)	> 5000

test system: CAL-85-1; test: cells; type: functional, cell-based, Homo sapiens; conditions: Homo sapiens, CAL-85-1;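 further: growth inhibition of human CAL-85-1 cells, read out with a cell viability assay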
Description: SANGER: Inhibition of human CAL-85-1 cell growth in a cell viability assay.

SMILES	IC50 [nM]
CCN(CC)CCCCNc1ncc2cc(-c3cc(OC)cc(OC)c3)c(NC(=O)NC(C)(C)C)nc2n1 [PD-173074]	> 2000
CC(C)CCN1c2nc(Nc3cc(F)c(O)c(F)c3)ncc2N(C)C(=O)C1C (stereo unspecified)	> 5000

test system: C32; test: cells; type: functional, cell-based, Homo sapiens; conditions: Homo sapiens, C32;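 further: cell viability assay, with IC50 reflecting inhibition of C32 cell growth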
Description: SANGER: Inhibition of human C32 cell growth in a cell viability assay.

SMILES	IC50 [nM]
CCN(CC)CCCCNc1ncc2cc(-c3cc(OC)cc(OC)c3)c(NC(=O)NC(C)(C)C)nc2n1 [PD-173074]	> 2000
CC(C)CCN1c2nc(Nc3cc(F)c(O)c(F)c3)ncc2N(C)C(=O)C1C (stereo unspecified)	3970

test system: MDA-MB-361; test: cells; type: functional, cell-based, Homo sapiens; conditions: Homo sapiens, MDA-MB-361

SMILES	IC50 [nM]
CCN(CC)CCCCNc1ncc2cc(-c3cc(OC)cc(OC)c3)c(NC(=O)NC(C)(C)C)nc2n1 [PD-173074]	> 2000
CC(C)CCN1c2nc(Nc3cc(F)c(O)c(F)c3)ncc2N(C)C(=O)C1C (stereo unspecified)	> 5000

test system: DoTc2-4510; test: cells; type: functional, cell-based, Homo sapiens; conditions: Homo sapiens, DoTc2-4510

SMILES	IC50 [nM]
CCN(CC)CCCCNc1ncc2cc(-c3cc(OC)cc(OC)c3)c(NC(=O)NC(C)(C)C)nc2n1 [PD-173074]	> 2000
CC(C)CCN1c2nc(Nc3cc(F)c(O)c(F)c3)ncc2N(C)C(=O)C1C (stereo unspecified)	> 5000

test system: NUGC-3; test: cells; type: functional, cell-based, Homo sapiens; conditions: Homo sapiens, NUGC-3;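 further: growth inhibition of human NUGC-3 cells, read out with a cell viability assay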
Description: SANGER: Inhibition of human NUGC-3 cell growth in a cell viability assay.

SMILES	IC50 [nM]
CCN(CC)CCCCNc1ncc2cc(-c3cc(OC)cc(OC)c3)c(NC(=O)NC(C)(C)C)nc2n1 [PD-173074]	> 2000
CC(C)CCN1c2nc(Nc3cc(F)c(O)c(F)c3)ncc2N(C)C(=O)C1C (stereo unspecified)	> 5000

test system: SW1573; test: cells; type: functional, cell-based, Homo sapiens; conditions: Homo sapiens, SW1573;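 further: growth inhibition of SW1573 cells, read out with a cell viability assay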
Description: SANGER: Inhibition of human SW1573 cell growth in a cell viability assay.

SMILES	IC50 [nM]
CCN(CC)CCCCNc1ncc2cc(-c3cc(OC)cc(OC)c3)c(NC(=O)NC(C)(C)C)nc2n1 [PD-173074]	> 2000
CC(C)CCN1c2nc(Nc3cc(F)c(O)c(F)c3)ncc2N(C)C(=O)C1C (stereo unspecified)	> 5000

test system: D-542MG; test: cells; type: functional, cell-based, Homo sapiens; conditions: Homo sapiens, D-542MG
Description: SANGER: Inhibition of human D-542MG cell growth in a cell viability assay.

SMILES	IC50 [nM]
CC(C)CCN1c2nc(Nc3cc(F)c(O)c(F)c3)ncc2N(C)C(=O)C1C (stereo unspecified)	> 5000

test system: LoVo; test: cells; type: functional, cell-based, Homo sapiens; conditions: Homo sapiens, LoVo;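 further: growth inhibition of human LoVo cells, read out with a cell viability assay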
Description: SANGER: Inhibition of human LoVo cell growth in a cell viability assay.

SMILES	IC50 [nM]
CCN(CC)CCCCNc1ncc2cc(-c3cc(OC)cc(OC)c3)c(NC(=O)NC(C)(C)C)nc2n1 [PD-173074]	> 2000
CC(C)CCN1c2nc(Nc3cc(F)c(O)c(F)c3)ncc2N(C)C(=O)C1C (stereo unspecified)	1470

test system: NCI-H650; test: cells; type: functional, cell-based, Homo sapiens; conditions: Homo sapiens, NCI-H650;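 further: growth inhibition of NCI-H650 cells, read out by a viability assay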
Description: SANGER: Inhibition of human NCI-H650 cell growth in a cell viability assay.

SMILES	IC50 [nM]
CCN(CC)CCCCNc1ncc2cc(-c3cc(OC)cc(OC)c3)c(NC(=O)NC(C)(C)C)nc2n1 [PD-173074]	> 2000
CC(C)CCN1c2nc(Nc3cc(F)c(O)c(F)c3)ncc2N(C)C(=O)C1C (stereo unspecified)	> 5000

test system: A-375; test: cells; type: functional, cell-based, Homo sapiens; conditions: Homo sapiens, A-375;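 further: growth inhibition of A375 cells, read out with a cell viability assay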
Description: SANGER: Inhibition of human A375 cell growth in a cell viability assay.

SMILES	IC50 [nM]
CCN(CC)CCCCNc1ncc2cc(-c3cc(OC)cc(OC)c3)c(NC(=O)NC(C)(C)C)nc2n1 [PD-173074]	> 2000
CC(C)CCN1c2nc(Nc3cc(F)c(O)c(F)c3)ncc2N(C)C(=O)C1C (stereo unspecified)	4050

test system: DMS-273; test: cells; type: functional, cell-based, Homo sapiens; conditions: Homo sapiens, DMS-273
Description: SANGER: Inhibition of human DMS-273 cell growth in a cell viability assay.

SMILES	IC50 [nM]
CCN(CC)CCCCNc1ncc2cc(-c3cc(OC)cc(OC)c3)c(NC(=O)NC(C)(C)C)nc2n1 [PD-173074]	> 2000
CC(C)CCN1c2nc(Nc3cc(F)c(O)c(F)c3)ncc2N(C)C(=O)C1C (stereo unspecified)	> 5000

test system: ME-180; test: cells; type: functional, cell-based, Homo sapiens; conditions: Homo sapiens, ME-180;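 further: cell viability assay measuring growth inhibition of ME-180 cells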
Description: SANGER: Inhibition of human ME-180 cell growth in a cell viability assay.

SMILES	IC50 [nM]
CCN(CC)CCCCNc1ncc2cc(-c3cc(OC)cc(OC)c3)c(NC(=O)NC(C)(C)C)nc2n1 [PD-173074]	> 2000
CC(C)CCN1c2nc(Nc3cc(F)c(O)c(F)c3)ncc2N(C)C(=O)C1C (stereo unspecified)	2780

test system: SiHa; test: cells; type: functional, cell-based, Homo sapiens; conditions: Homo sapiens, SiHa;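 further: Viability-based readout of growth inhibition in SiHa cells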
Description: SANGER: Inhibition of human SiHa cell growth in a cell viability assay.

SMILES	IC50 [nM]
CCN(CC)CCCCNc1ncc2cc(-c3cc(OC)cc(OC)c3)c(NC(=O)NC(C)(C)C)nc2n1 [PD-173074]	> 2000
CC(C)CCN1c2nc(Nc3cc(F)c(O)c(F)c3)ncc2N(C)C(=O)C1C (stereo unspecified)	> 5000

test system: GAMG; test: cells; type: functional, cell-based, Homo sapiens; conditions: Homo sapiens, GAMG;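 further: cell growth inhibition measured by a viability assay in the GAMG human cell line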
Description: SANGER: Inhibition of human GAMG cell growth in a cell viability assay.

SMILES	IC50 [nM]
CCN(CC)CCCCNc1ncc2cc(-c3cc(OC)cc(OC)c3)c(NC(=O)NC(C)(C)C)nc2n1 [PD-173074]	> 2000
CC(C)CCN1c2nc(Nc3cc(F)c(O)c(F)c3)ncc2N(C)C(=O)C1C (stereo unspecified)	747

test system: HuCCT-1; test: cells; type: functional, cell-based, Homo sapiens, HuCCT1; conditions: Homo sapiens, HuCCT-1;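 further: growth inhibition of HuCCT-1 cells, read out by a cell viability assay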
Description: SANGER: Inhibition of human HuCCT1 cell growth in a cell viability assay.

SMILES	IC50 [nM]
CCN(CC)CCCCNc1ncc2cc(-c3cc(OC)cc(OC)c3)c(NC(=O)NC(C)(C)C)nc2n1 [PD-173074]	> 2000
CC(C)CCN1c2nc(Nc3cc(F)c(O)c(F)c3)ncc2N(C)C(=O)C1C (stereo unspecified)	> 5000

test system: HCC1419; test: cells; type: functional, cell-based, Homo sapiens; conditions: Homo sapiens, HCC1419;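 further: growth inhibition of human HCC1419 cells, read out as cell viability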
Description: SANGER: Inhibition of human HCC1419 cell growth in a cell viability assay.

SMILES	IC50 [nM]
CCN(CC)CCCCNc1ncc2cc(-c3cc(OC)cc(OC)c3)c(NC(=O)NC(C)(C)C)nc2n1 [PD-173074]	> 2000
CC(C)CCN1c2nc(Nc3cc(F)c(O)c(F)c3)ncc2N(C)C(=O)C1C (stereo unspecified)	> 5000

test system: OE33; test: cells; type: functional, cell-based, Homo sapiens; conditions: Homo sapiens, OE33;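 further: growth inhibition of human OE33 cells, measured by a cell viability assay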
Description: SANGER: Inhibition of human OE33 cell growth in a cell viability assay.

SMILES	IC50 [nM]
CCN(CC)CCCCNc1ncc2cc(-c3cc(OC)cc(OC)c3)c(NC(=O)NC(C)(C)C)nc2n1 [PD-173074]	> 2000
CC(C)CCN1c2nc(Nc3cc(F)c(O)c(F)c3)ncc2N(C)C(=O)C1C (stereo unspecified)	> 5000

test system: SCC-25; test: cells; type: functional, cell-based, Homo sapiens; conditions: Homo sapiens, SCC-25;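 further: growth inhibition of SCC-25 cells, measured with a cell viability assay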
Description: SANGER: Inhibition of human SCC-25 cell growth in a cell viability assay.

SMILES	IC50 [nM]
CCN(CC)CCCCNc1ncc2cc(-c3cc(OC)cc(OC)c3)c(NC(=O)NC(C)(C)C)nc2n1 [PD-173074]	> 2000
CC(C)CCN1c2nc(Nc3cc(F)c(O)c(F)c3)ncc2N(C)C(=O)C1C (stereo unspecified)	> 5000

test system: EGI-1; test: cells; type: functional, cell-based, Homo sapiens; conditions: Homo sapiens, EGI-1;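 further: cell viability readout used to gauge growth inhibition of EGI-1 cells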
Description: SANGER: Inhibition of human EGI-1 cell growth in a cell viability assay.

SMILES	IC50 [nM]
CCN(CC)CCCCNc1ncc2cc(-c3cc(OC)cc(OC)c3)c(NC(=O)NC(C)(C)C)nc2n1 [PD-173074]	> 2000
CC(C)CCN1c2nc(Nc3cc(F)c(O)c(F)c3)ncc2N(C)C(=O)C1C (stereo unspecified)	> 5000

test system: A549; test: cells; type: functional, cell-based, Homo sapiens; conditions: Homo sapiens, A549;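 further: growth inhibition of A549 cells, read out with a cell viability assay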
Description: SANGER: Inhibition of human A549 cell growth in a cell viability assay.

SMILES	IC50 [nM]
CCN(CC)CCCCNc1ncc2cc(-c3cc(OC)cc(OC)c3)c(NC(=O)NC(C)(C)C)nc2n1 [PD-173074]	> 2000
CC(C)CCN1c2nc(Nc3cc(F)c(O)c(F)c3)ncc2N(C)C(=O)C1C (stereo unspecified)	1310

test system: A2780; test: cells; type: functional, cell-based, Homo sapiens; conditions: Homo sapiens, A2780;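 further: growth inhibition of A2780 cells, read out with a cell viability assay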
Description: SANGER: Inhibition of human A2780 cell growth in a cell viability assay.

SMILES	IC50 [nM]
CCN(CC)CCCCNc1ncc2cc(-c3cc(OC)cc(OC)c3)c(NC(=O)NC(C)(C)C)nc2n1 [PD-173074]	> 2000
CC(C)CCN1c2nc(Nc3cc(F)c(O)c(F)c3)ncc2N(C)C(=O)C1C (stereo unspecified)	> 5000

test system: SBC-5; test: cells; type: functional, cell-based, Homo sapiens; conditions: Homo sapiens, SBC-5;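 further: cell viability assay read-out, IC50 is the concentration that inhibits growth of the cells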
Description: SANGER: Inhibition of human SBC-5 cell growth in a cell viability assay.

SMILES	IC50 [nM]
CCN(CC)CCCCNc1ncc2cc(-c3cc(OC)cc(OC)c3)c(NC(=O)NC(C)(C)C)nc2n1 [PD-173074]	> 2000
CC(C)CCN1c2nc(Nc3cc(F)c(O)c(F)c3)ncc2N(C)C(=O)C1C (stereo unspecified)	> 5000

test system: PC-3; test: cells; type: functional, cell-based, Homo sapiens; conditions: Homo sapiens, PC-3;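 further: cell viability assay measuring growth inhibition of PC-3 cells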
Description: SANGER: Inhibition of human PC-3 cell growth in a cell viability assay.

SMILES	IC50 [nM]
CCN(CC)CCCCNc1ncc2cc(-c3cc(OC)cc(OC)c3)c(NC(=O)NC(C)(C)C)nc2n1 [PD-173074]	> 2000
CC(C)CCN1c2nc(Nc3cc(F)c(O)c(F)c3)ncc2N(C)C(=O)C1C (stereo unspecified)	4950

test system: H4; test: cells; type: functional, cell-based, Homo sapiens; conditions: Homo sapiens, H4
Description: SANGER: Inhibition of human H4 cell growth in a cell viability assay.

SMILES	IC50 [nM]
CCN(CC)CCCCNc1ncc2cc(-c3cc(OC)cc(OC)c3)c(NC(=O)NC(C)(C)C)nc2n1 [PD-173074]	> 2000
CC(C)CCN1c2nc(Nc3cc(F)c(O)c(F)c3)ncc2N(C)C(=O)C1C (stereo unspecified)	2480

test system: BFTC-909; test: cells; type: functional, cell-based, Homo sapiens; conditions: Homo sapiens, BFTC-909
Description: SANGER: Inhibition of human BFTC-909 cell growth in a cell viability assay.

SMILES	IC50 [nM]
CCN(CC)CCCCNc1ncc2cc(-c3cc(OC)cc(OC)c3)c(NC(=O)NC(C)(C)C)nc2n1 [PD-173074]	> 2000
CC(C)CCN1c2nc(Nc3cc(F)c(O)c(F)c3)ncc2N(C)C(=O)C1C (stereo unspecified)	> 5000

test system: KYSE-270; test: cells; type: functional, cell-based, Homo sapiens; conditions: Homo sapiens, KYSE-270;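 further: cell growth inhibition measured with a viability assay in the human KYSE-270 line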
Description: SANGER: Inhibition of human KYSE-270 cell growth in a cell viability assay.

SMILES	IC50 [nM]
CCN(CC)CCCCNc1ncc2cc(-c3cc(OC)cc(OC)c3)c(NC(=O)NC(C)(C)C)nc2n1 [PD-173074]	> 2000
CC(C)CCN1c2nc(Nc3cc(F)c(O)c(F)c3)ncc2N(C)C(=O)C1C (stereo unspecified)	> 5000
